Experimental data from patent US20200283498A1, “T CELL RECEPTOR FUSIONS AND CONJUGATES AND METHODS OF USE THEREOF” (Altor Bioscience LLC, priority 2008, published 2020).

Tests used:
[1] = test system: CD45R+ cells in tumors; assay: Immune cell infiltration into tumors (CD45R immunohistochemistry); type: in vivo, nude mice
[2] = test system: p53-/HLA-A2.1- AsPC1 tumor cells; assay: AsPC1 xenograft tumor growth in nude mice; type: in vivo; conditions: 9 doses i.v.
Description: (§1) The tumor lines used in this study were MBA-MD-231 (p53+/HLA-A2.1+), PANC1 (p53+/HLA-A2.1+), AsPC1(p53-/HLA-A2.1-) and HT29 (p53+/HLA-A2.1-). […] J. Immunol. 176:3223. Primary tumors derived from these cells were established in nude mice following subcutaneous injection. Mice were then treated as previously described with 264scTCR/IL-2, rhIL-2 or PBS and tumor volumes were measured.

[3] = test system: YAC-1 target cells; assay: Lytic activity of stimulated nude mouse splenocytes (calcein release); type: cell-based; conditions: four days in equivalent molar amounts; YAC-1 targets
[4] = test system: immune cells (splenocytes, lymph nodes, bone marrow); assay: In vivo activation of immune cells in A375 tumor-bearing nude mice
Excerpt: FIG. 19A and FIG. 19B depict in vivo activation of immune cells in mice following scTCR/IL-2 treatment. […] Splenocytes were isolated at the indicated times and analyzed by flow cytometry for expression of CD25, CD122 or pan-NK markers. The plots indicate the percentage of CD25, CD122 or pan-NK-positive staining (dark line) compared with splenocyte staining with an isotype control mAb (red line).
The effect of the scTCR/IL-2 fusion proteins on immune cells was also investigated in vivo. […] Changes in IL-2R subunit expression were also assessed in immune cells isolated from the spleens, lymph nodes and bone marrow of 264scTCR/IL-2- or MART-1scTCR/IL-2-treated mice.

[5] = test system: p53+/HLA-A2.1+ MDA-MB-231 tumor cells; assay: MDA-MB-231 xenograft tumor growth in nude mice; type: in vivo; conditions: compared to PBS; 9 doses i.v.
[6] = test system: human A375 cell line tumors; assay: A375 primary tumor growth model in nude mice
[7] = test system: HT29 (p53+/HLA-A2.1-) tumors; assay: HT29 xenograft tumor growth in nude mice; type: in vivo; conditions: not shown
Description: as §1

[8] = test system: A375 tumors; assay: Tumor infiltration of adoptively transferred splenocytes pre-coated with scTCR/IL-2; type: in vivo, nude mice; conditions: 24 hrs after transfer of pre-coated splenocytes
Description: FIG. 28 depicts targeted tumor infiltration of adoptively transferred splenocytes pre-coated with scTCR/IL-2. […] Boxes, interquartile range of distribution (25th-75th percentile); line within box, median; whisker, 5th-[…]. *, P<0.0001; **, P<0.0001. At least three tumors per group and 10 fields per tumor were analyzed.
The activated splenocytes were isolated and incubated with the respective scTCR/IL-2 fusion proteins in vitro to coat the surface of the cells prior to transfer into A375 tumor bearing nude mouse recipients. Tumors were then isolated 24 hrs later and levels of CD45R+NK cells were assessed.

[9] = test system: p53+/HLA-A2.1+ PANC1 tumor cells; assay: PANC1 xenograft tumor growth in nude mice; type: in vivo; conditions: 9 doses i.v.
Description: as §1

[10] = test system: p53 (aa 264-272) peptide-loaded T2 cells and CTLL-2 cells; assay: Cell-cell conjugation assay (flow cytometry); type: cell-based, human T2 cells, mouse CTLL-2 cells
Description: FIG. 20A, FIG. 20B, FIG. 20C, and FIG. 20D depict in vitro conjugation of IL-2 receptor-bearing immune cells with antigen presenting target cells mediated by scTCR/IL-2 fusion protein. T2 cells were loaded with either p53 (aa 264-272) or p53 (aa 149-157) (control) peptides and then labeled with HE. CTLL-2 cells were labeled with calcein AM. Labeled cells were mixed and incubated in the presence or absence of 264scTCR/IL-2 fusion protein and the samples were analyzed by flow cytometry. Assay conditions including loading peptide used and presence or absence of fusion protein are indicated beneath each histogram. Single stained regions are marked 1 and 3 and the double stained cell poplulation is marked 2.
In this experiment, T2 cells pulsed with either the 149 or 264 peptide. CTLL-2 cells were hydrodiethidium (HE) labeled and incubated for 20 minutes at RT with an equal number of calcein-AM labeled T2 cells pulsed with either 50 μg of 149 or 264 peptide. […] In contrast, conjugate formation was not observed with the mixture that included the 149 peptide pulsed T2 cells (B; 0.88%). Cell samples were washed one time before analysis on the flow cytometer.
Samples were analyzed by flow cytometry. […] Thus, the scTCR/IL-2 fusion protein could be useful in a therapeutic approach for bringing together immune effector cells and tumor cells and stimulating immune cell-mediated activity against the tumor.

[11] = test system: human NSCLC A549-A2 tumor cells; assay: Adoptive transfer of preincubated NK cells in A549-A2 experimental metastasis model; type: in vivo, athymic nude mice; conditions: CTX 200 mg/kg ip days 14, 21; NK cells preincubated with the protein iv days 16, 22 (CTX group: no NK cells)

## 264scTCR/IL-2: soluble three domain single-chain TCR specific to human p53 (aa 264-272)/HLA-A2.1 linked to human IL-2 via a peptide linker
[1]; A375 (p53+/HLA.A2.1+) tumor sections
  CD45R-positive cells in A375 tumors: Complete tumor infiltration of large CD45R+ cells
[1]; A375 tumors, 10 μg/dose, four days of daily treatment
  CD45R+ cell infiltration: 14.5 CD45R+ cells/field of view
[1]; AsPC1 (p53-/HLA-A2.1-) tumor sections
  CD45R-positive cells in AsPC1 tumors: no differences were observed between treatment groups
[2]
  tumor growth: tumor outgrowth was not inhibited
[3]
  lytic activity of stimulated mouse splenocytes: Equivalent levels of lytic activity
[4]; repeated administration
  NK cells: treatment-dependent increase in NK cells
[4]; repeated daily i.v. 32 μg/dose
  lymph nodes and spleens: enlargement of lymph nodes and spleens
  serum IFN-γ levels: increase in serum IFN-γ levels
[4]; repeated daily treatment
  expression of CD122 and CD25 in cells from lymph nodes and bone marrow: Elevated expression
[4]; repeated daily treatments, peak one day after fourth treatment
  Splenocytes expressing IL-2Rα (CD25) or IL-2≈ (CD122): increased approximately three-fold
[5]
  tumor growth: significant antitumor effect
[6]; 3 μg dose, 9 doses
  mice that developed tumors: all of the mice developed tumors
[6]; 3 μg dose, 9 doses, vs PBS
  average tumor size: significantly smaller than that of the PBS treated mice
[6]; 0.5 mg/kg i.v., four daily injections, 10-day rest, four more
  A375 tumor growth compared to PBS: potent antitumor activity
[6]; 0.5 mg/kg/dose, 9 doses
  mice that developed tumors: six of the eight
[6]; 1.6 mg/kg and 0.5 mg/kg doses vs rhIL-2 0.4 mg/kg
  tumor weight at the end of the study: significantly more effective at reducing tumor burden than the high dose of rhIL-2
[6]; 1.6 mg/kg i.v., 9 doses, tumors established three days
  mice that developed tumors: 50%
[6]; 1.6 mg/kg/dose, 9 doses
  mice that developed tumors: four of the eight
[6]; 0.5 or 0.2 mg/kg, four daily injections, 10-day rest, four more, compared with 0.125 mg/kg rhIL-2
  tumor growth: significantly inhibited tumor growth
[6]; 264scTCR/IL-2 0.5 mg/kg daily x4 per cycle, rhIL-2 0.4 mg/kg every 8 hrs for five days per cycle
  tumor growth following two dosing cycles: inhibited tumor growth to a similar degree
[6]; tumors grown to 75 or 200 mm^3, 9 doses i.v.
  growth of well-established tumors: marked inhibition of tumor growth and partial to complete regression of tumors in most mice
[7]
  tumor growth: tumor outgrowth was not inhibited
[8]
  cells bound with fusion protein infiltrating into tumors: 3.0 BF1+ cells/field of view
  infiltration of CD45R+ cells: 10.3 CD45R+ cells/field of view
[9]
  tumor growth: significant antitumor effects
[10]; 149 control peptide-loaded T2 cells + CTLL-2 cells, fusion protein present (or fusion protein absent)
  conjugated (double stained) cells, share of total population: approximately 0.9%
[10]; 149 control peptide-loaded T2 cells + CTLL-2 cells, fusion protein present (or fusion protein absent), listed as 264 scTCR-IL-2
  conjugated (double stained) cells, share of total population: 0.88%
[10]; 264 peptide-loaded T2 cells + CTLL-2 cells, fusion protein present (1 μg)
  conjugated (double stained) cells, share of total population: 3.25%

## O=P1(N(CCCl)CCCl)NCCCO1 (centres unmarked) [CTX, cyclophosphamide, reference compound]
[11]
  Median survival: 52 days
